Data taken from the Kinase Knowledgebase extract (Sharma et al. 2016).
Values belong to the compound of their own block, whether it stands above or below them.

Assays:
PIK3CB (Human) = PIK3CB (Human) (UniProt P42338); experiment: Inhibition of PIK3CB Kinase Activity
PIK3CA (human) = PIK3CA (human) (UniProt P42336); experiment: Inhibition of PIK3CA Kinase Activity
PIK3CD (Human) = PIK3CD (Human) (UniProt O00329); experiment: Inhibition of PIK3CD Kinase Activity
PIK3CG (human) = PIK3CG (human) (UniProt P48736); experiment: Inhibition of PIK3CG Kinase Activity
PIK3CG (human), sequence (P48736 whole entry, looked up): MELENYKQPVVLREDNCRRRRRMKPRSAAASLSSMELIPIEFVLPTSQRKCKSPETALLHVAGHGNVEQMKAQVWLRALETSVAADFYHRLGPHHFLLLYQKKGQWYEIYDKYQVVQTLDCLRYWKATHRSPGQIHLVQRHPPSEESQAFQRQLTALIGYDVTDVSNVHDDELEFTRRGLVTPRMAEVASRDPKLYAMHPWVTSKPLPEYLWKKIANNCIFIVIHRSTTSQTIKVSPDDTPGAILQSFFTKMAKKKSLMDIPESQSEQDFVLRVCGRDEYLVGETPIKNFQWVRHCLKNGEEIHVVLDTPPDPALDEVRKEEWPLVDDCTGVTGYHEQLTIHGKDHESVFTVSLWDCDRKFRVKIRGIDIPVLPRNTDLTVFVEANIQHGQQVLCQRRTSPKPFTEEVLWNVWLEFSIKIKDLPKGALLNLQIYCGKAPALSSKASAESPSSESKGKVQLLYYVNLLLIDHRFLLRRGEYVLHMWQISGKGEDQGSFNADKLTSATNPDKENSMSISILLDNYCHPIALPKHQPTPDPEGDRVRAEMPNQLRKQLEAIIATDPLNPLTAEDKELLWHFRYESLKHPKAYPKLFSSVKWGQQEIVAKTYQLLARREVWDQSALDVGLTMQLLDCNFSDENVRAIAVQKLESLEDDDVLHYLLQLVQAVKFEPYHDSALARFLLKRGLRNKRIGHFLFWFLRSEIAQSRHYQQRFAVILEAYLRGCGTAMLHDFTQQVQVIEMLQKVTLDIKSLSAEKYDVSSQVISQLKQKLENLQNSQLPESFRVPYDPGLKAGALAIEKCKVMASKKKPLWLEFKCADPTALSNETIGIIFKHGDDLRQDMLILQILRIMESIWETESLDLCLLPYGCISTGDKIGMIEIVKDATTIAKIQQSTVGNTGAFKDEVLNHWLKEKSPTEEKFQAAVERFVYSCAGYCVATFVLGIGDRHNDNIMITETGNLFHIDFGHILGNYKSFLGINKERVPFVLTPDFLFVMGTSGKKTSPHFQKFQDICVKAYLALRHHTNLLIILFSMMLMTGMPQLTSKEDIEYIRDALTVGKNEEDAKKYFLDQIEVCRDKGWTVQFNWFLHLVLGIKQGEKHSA

PIK3CA (human), sequence (P42336 whole entry, looked up): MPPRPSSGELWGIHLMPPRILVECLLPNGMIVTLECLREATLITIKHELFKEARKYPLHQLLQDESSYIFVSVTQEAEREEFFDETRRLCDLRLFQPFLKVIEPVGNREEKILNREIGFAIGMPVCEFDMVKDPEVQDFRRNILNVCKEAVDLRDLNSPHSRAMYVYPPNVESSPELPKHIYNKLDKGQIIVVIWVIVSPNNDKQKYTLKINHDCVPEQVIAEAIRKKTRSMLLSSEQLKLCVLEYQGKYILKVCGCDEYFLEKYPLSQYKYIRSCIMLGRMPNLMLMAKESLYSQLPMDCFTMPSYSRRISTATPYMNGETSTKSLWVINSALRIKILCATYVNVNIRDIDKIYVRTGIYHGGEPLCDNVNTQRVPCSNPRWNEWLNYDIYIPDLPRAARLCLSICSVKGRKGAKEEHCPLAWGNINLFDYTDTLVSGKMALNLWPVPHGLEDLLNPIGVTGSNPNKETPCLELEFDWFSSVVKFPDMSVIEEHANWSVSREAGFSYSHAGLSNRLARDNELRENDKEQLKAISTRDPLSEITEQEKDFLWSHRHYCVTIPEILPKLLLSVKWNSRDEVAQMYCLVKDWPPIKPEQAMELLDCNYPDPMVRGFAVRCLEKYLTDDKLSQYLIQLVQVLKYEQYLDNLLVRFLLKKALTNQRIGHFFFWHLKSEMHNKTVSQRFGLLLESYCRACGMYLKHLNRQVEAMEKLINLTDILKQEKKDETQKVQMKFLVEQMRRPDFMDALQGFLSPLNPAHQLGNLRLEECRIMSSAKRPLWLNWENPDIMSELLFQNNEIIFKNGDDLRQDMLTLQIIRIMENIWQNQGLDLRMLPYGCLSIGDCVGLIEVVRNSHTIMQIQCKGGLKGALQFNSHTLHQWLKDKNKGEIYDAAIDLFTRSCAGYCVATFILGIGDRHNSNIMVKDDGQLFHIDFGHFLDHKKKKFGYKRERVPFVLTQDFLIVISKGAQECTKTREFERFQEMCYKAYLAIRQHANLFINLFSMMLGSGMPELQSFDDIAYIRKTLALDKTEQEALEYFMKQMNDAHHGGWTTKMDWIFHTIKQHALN
PIK3CB (Human), sequence (P42338 whole entry, looked up): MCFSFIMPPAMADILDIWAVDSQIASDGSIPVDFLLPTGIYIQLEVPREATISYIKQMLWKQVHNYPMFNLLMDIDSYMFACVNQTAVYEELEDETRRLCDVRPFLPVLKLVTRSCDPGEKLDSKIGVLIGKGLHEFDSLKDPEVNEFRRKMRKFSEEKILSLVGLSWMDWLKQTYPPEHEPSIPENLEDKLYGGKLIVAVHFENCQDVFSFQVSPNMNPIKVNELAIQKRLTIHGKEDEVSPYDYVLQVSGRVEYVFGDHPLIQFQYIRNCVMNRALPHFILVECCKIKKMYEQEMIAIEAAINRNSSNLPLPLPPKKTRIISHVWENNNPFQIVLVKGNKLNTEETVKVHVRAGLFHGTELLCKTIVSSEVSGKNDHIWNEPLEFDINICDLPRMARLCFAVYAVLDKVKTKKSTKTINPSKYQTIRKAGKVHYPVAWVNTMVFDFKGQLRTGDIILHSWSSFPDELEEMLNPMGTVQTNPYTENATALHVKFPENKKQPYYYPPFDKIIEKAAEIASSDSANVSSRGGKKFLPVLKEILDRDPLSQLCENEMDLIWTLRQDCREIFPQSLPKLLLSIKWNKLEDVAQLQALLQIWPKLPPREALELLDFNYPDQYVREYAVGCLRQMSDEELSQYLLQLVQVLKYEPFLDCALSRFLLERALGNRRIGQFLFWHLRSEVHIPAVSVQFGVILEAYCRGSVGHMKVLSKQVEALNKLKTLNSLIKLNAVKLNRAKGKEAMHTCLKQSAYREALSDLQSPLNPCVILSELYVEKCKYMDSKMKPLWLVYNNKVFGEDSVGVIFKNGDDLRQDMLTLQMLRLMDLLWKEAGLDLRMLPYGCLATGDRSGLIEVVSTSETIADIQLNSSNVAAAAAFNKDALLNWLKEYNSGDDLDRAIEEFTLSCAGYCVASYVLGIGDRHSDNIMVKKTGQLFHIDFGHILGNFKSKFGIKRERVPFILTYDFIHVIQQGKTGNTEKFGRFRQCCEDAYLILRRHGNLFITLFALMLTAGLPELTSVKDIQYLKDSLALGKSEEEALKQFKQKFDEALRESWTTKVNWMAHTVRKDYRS
PIK3CD (Human), sequence (O00329 whole entry, looked up): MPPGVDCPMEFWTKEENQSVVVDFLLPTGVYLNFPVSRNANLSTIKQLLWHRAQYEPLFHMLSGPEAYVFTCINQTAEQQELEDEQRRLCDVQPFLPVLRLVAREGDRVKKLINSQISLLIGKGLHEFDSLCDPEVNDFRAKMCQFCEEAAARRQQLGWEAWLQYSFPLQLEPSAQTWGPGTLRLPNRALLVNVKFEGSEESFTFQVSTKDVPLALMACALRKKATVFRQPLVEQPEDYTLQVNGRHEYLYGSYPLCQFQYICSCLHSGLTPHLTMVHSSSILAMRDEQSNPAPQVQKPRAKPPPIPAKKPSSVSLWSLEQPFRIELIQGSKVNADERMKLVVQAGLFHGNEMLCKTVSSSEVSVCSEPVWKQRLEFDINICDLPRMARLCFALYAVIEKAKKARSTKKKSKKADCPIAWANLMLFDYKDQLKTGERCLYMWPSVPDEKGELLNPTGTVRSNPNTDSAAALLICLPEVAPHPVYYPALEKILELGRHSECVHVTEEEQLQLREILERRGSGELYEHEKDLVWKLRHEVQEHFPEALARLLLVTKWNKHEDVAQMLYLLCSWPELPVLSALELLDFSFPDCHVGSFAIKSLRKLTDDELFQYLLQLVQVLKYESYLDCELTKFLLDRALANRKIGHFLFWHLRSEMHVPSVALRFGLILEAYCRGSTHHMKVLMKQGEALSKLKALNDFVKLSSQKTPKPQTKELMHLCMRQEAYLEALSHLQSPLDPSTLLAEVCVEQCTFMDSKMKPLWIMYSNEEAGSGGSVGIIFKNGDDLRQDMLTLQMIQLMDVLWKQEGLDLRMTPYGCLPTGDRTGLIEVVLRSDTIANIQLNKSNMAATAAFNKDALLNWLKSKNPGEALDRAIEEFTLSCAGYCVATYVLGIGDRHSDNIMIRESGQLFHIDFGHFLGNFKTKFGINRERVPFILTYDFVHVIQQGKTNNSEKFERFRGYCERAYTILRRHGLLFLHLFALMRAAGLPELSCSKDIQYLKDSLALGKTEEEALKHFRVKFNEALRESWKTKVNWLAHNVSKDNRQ

Structure (SMILES): COc1ccc(-c2ccc3nc(C)c(-c4cccnc4)n3n2)cc1OC
IC50 (PIK3CB (Human)): 1370 nM | IC50 (PIK3CA (human)): 59 nM | IC50 (PIK3CD (Human)): 309 nM

Structure (SMILES): COc1cc(-c2ccc3nc(C)c(-c4cnc(N)c(C(F)(F)F)c4)n3n2)ccc1OC1CCNCC1
IC50 (PIK3CB (Human)): 1040 nM | IC50 (PIK3CA (human)): 63 nM | IC50 (PIK3CD (Human)): 153 nM | IC50 (PIK3CG (human)): 1180 nM

Now from value to compound:

IC50 (PIK3CA (human)): 3560 nM
Structure (SMILES): COc1cc(-c2ccc3nc(C)c(-c4cnc(N)c(C(F)(F)F)c4)n3n2)ccc1OCCCNC(=O)c1ccc(F)c(F)c1

IC50 (PIK3CA (human)): 925 nM
Structure (SMILES): COc1cccc(NC(=O)NCCCOc2ccc(-c3ccc4nc(C)c(-c5cnc(N)c(C(F)(F)F)c5)n4n3)cc2OC)c1

IC50 (PIK3CA (human)): 3690 nM
Structure (SMILES): COc1cc(-c2ccc3nc(C)c(-c4cnc(N)c(C(F)(F)F)c4)n3n2)ccc1OCCNC(=O)Nc1cccc(C(F)(F)F)c1
